Results: patent publication US20060276438A1 (priority 2004, published 2006)
Converted amounts (≈) assume the structure as drawn. “And” between values parts separate entries of the source, which are not always exact repeats. Identical values can stand only once. Like-named read-outs stand apart in the source and are kept apart here. Marks after values point to notes of the source that are not given here.

Key:
[1] = tested on: Madin-Darby canine kidney cells (MDCK); details: at concentrations of 1-100 μg/ml
[2] = tested on: Influenza A (H1N1; New Caledonia/20/99); assay: microbe, parasite or virus in culture; type: cell-based, influenza type A virus; details: for EC50: Influenza A virus, H1N1, MDCK, MDCK cells, H1N1 New Caledonia/20/99; for antiviral activity rating in words: influenza virus A (H1N1)
[3] = tested on: Vero cells
[4] = tested on: Influenza B (Hong Kong/330/02); assay: Antiviral assay in MDCK cells (CPE inhibition visual / Neutral Red), influenza B, initial and confirmatory test; type: cell-based, influenza type B virus; details: for antiviral activity rating in words: influenza virus B
Description: An antiviral test assay for the determination of the efficacy of DON was carried out according to the methods described in Furata et al., Antimicrobial Agents and Chemotherapy, 46(4):977-981 (2002). The vehicle used was Eagle's modification of minimum essential medium (EMEM). Two tests were carried out with different strains of influenza type A viruses and one test, followed by a confirmatory test, was carried out with an influenza type B virus strain. The cell type in all tests was Madin-Darby canine kidney cells (MDCK), and in all tests drug units and control units are expressed as micrograms/milliliter (μg/ml). […] The Safety Index (SI) of the drug could then be calculated according to the formula: SI═IC50/EC50. […] The Safety Index (SI) of the drug could then be calculated according to the formula: SI═IC50/ EC50, or SI═IC50/ EC90. All drug tests were carried out with stationary cells.

[5] = tested on: Madin-Darby canine kidney cells (MDCK); assay: cells; details: Canis lupus familiaris
[6] = tested on: Influenza A (H3N2; Panama/2007/99); assay: microbe, parasite or virus in culture; type: cell-based, influenza type A virus; details: for EC50: MDCK cells, H3N2 Panama/2007/99; for SI (Safety Index = IC50/EC50): H3N2; for antiviral activity rating in words: influenza virus A (H3N2)
[7] = based on EC50 by CPE inhibition (visual), H1N1
[8] = based on EC50 by Neutral Red, H1N1
[9] = Influenza B virus, MDCK, CPE inhibition (visual), MDCK cells, influenza B Hong Kong/330/02, initial test, read-out: EC50
[10] = Influenza B virus, MDCK, Neutral Red assay, MDCK cells, influenza B Hong Kong/330/02, initial test, read-out: EC50
[11] = Influenza B virus, MDCK, confirmatory test, visual method, MDCK cells, influenza B Hong Kong/330/02, read-out: EC50
[12] = based on EC50 by CPE inhibition (visual), influenza B initial test
[13] = based on EC50 by Neutral Red, influenza B initial test
[14] = read-out: IC50 (concentration toxic for 50% of MDCK host cells), in the influenza A H1N1 test, stationary cells
[15] = read-out: IC50 (concentration toxic for 50% of MDCK host cells), in the influenza A H3N2 test, stationary cells
[16] = read-out: IC50 (concentration toxic for 50% of MDCK host cells), in the influenza B confirmatory test, stationary cells
[17] = read-out: IC50 (concentration toxic for 50% of MDCK host cells), in the influenza B initial test, stationary cells
[18] = Influenza A virus, H3N2, MDCK, CPE inhibition (visual), read-out: EC50
[19] = Influenza A virus, H3N2, MDCK, Neutral Red assay, read-out: EC50
[20] = based on EC50 by CPE inhibition (visual)

[N-]=[N+]=CC(=O)CC[C@H](N)C(=O)O [DON, 6-diazo-5-oxo-L-norleucine]
toxicity in the neutral red assay [1]: 25-50%
EC50 ([2]; CPE inhibition (visual)): 0.32 µg/mL (≈ 1.87 µM)
EC50 ([2]; Neutral Red assay): 0.21 µg/mL (≈ 1.23 µM)
SI (Safety Index = IC50/EC50) [2, 7]: 312
SI (Safety Index = IC50/EC50) [2, 8]: 476
antiviral activity rating in words [2]: active to highly active
toxicity by neutral red assay in Vero cells compared with MDCK cells [3]: much greater than in MDCK cells
EC90 ([4]; Influenza B virus, MDCK): 2.5 µg/mL (≈ 14.6 µM)
EC50 [4, 9]: 0.032 µg/mL (≈ 0.187 µM)
EC50 [4, 10]: 0.14 µg/mL (≈ 0.818 µM)
EC50 [4, 11]: 0.18 µg/mL (≈ 1.05 µM)
SI (Safety Index = IC50/EC50) [4, 12]: 3,125
SI (Safety Index = IC50/EC50) [4, 13]: 714
SI (Safety Index = IC50/EC50) ([4]; influenza B confirmatory test): >555
SI = IC50/EC90 ([4]; influenza B confirmatory test): 40^b
antiviral activity rating in words [4]: active to highly active
IC50 [5, 14]: > 100 µg/mL
IC50 [5, 15]: ≥ 100 µg/mL
IC50 [5, 16]: > 100 µg/mL
IC50 [5, 17]: ≥ 100 µg/mL
EC50 [6, 18]: 2.3 µg/mL (≈ 13.4 µM)
EC50 [6, 19]: 1.8 µg/mL (≈ 10.5 µM)
SI (Safety Index = IC50/EC50) [6, 20]: 43
SI (Safety Index = IC50/EC50) ([6]; based on EC50 by Neutral Red): 56
antiviral activity rating in words [6]: active to highly active

NC(=O)c1ncn([C@@H]2O[C@H](CO)[C@@H](O)[C@H]2O)n1 [Positive control drug, ribavarin]
SI (Safety Index = IC50/EC50) [2]: >18
EC50 ([2]; CPE inhibition (visual)): 5.5 µg/mL (≈ 22.5 µM)
EC50 ([2]; Neutral Red assay): 5.5 µg/mL (≈ 22.5 µM)
EC50 [4, 10]: 2 µg/mL (≈ 8.19 µM)
EC50 [4, 11]: 1.8 µg/mL (≈ 7.37 µM)
EC90 ([4]; Influenza B virus, confirmatory test, visual method, MDCK cells, influenza B Hong Kong/330/02, read-out: EC90): 3.5 µg/mL (≈ 14.3 µM)
EC50 ([4]; Neutral Red assay, MDCK cells, influenza B Hong Kong/330/02, initial test): 1.2 µg/mL (≈ 4.91 µM)
SI (Safety Index = IC50/EC50) [4, 13]: >50 and >83
SI (Safety Index = IC50/EC50) ([4]; influenza B confirmatory test): >56
SI = IC50/EC90 ([4]; influenza B confirmatory test): >29^b
IC50 [5, 14]: > 100 µg/mL
IC50 [5, 15]: > 100 µg/mL
IC50 [5, 16]: > 100 µg/mL
IC50 [5, 17]: > 100 µg/mL
EC50 [6, 19]: 4.3 µg/mL (≈ 17.6 µM)
EC50 ([6]; Neutral Red assay): 5.5 µg/mL (≈ 22.5 µM)

N[C@H](C(=O)O)[C@@H]1CC(Cl)=NO1 [acivicin, (alpha-S,5S)-alpha-amino-3-chloro-2-isoxazoline-5-acetic acid]
EC50 ([2]; CPE inhibition (visual)): 2.5 µg/mL (≈ 14 µM)
EC50 ([2]; Neutral Red assay): 1.3 µg/mL (≈ 7.28 µM)
SI (Safety Index = IC50/EC50) [2, 7]: >4
SI (Safety Index = IC50/EC50) [2, 8]: >7.7
antiviral activity rating in words [2]: weakly active to active
EC50 [4, 9]: 0.32 µg/mL (≈ 1.79 µM)
EC50 [4, 10]: 0.32 µg/mL (≈ 1.79 µM)
SI (Safety Index = IC50/EC50) [4, 12]: >312
SI (Safety Index = IC50/EC50) [4, 13]: >312
antiviral activity rating in words [4]: markedly active
IC50 [5, 14]: > 100 µg/mL
IC50 [5, 15]: ≥ 100 µg/mL
IC50 [5, 17]: ≥ 100 µg/mL
EC50 [6, 18]: 50 µg/mL (≈ 280 µM)
EC50 [6, 19]: 55 µg/mL (≈ 308 µM)
SI (Safety Index = IC50/EC50) [6, 20]: >2
SI (Safety Index = IC50/EC50) ([6]; based on EC50 by Neutral Red): 1.8
antiviral activity rating in words [6]: not active
